US10266603B2, “Targeted therapy to restore radioactive iodine transport in thyroid cancer” (The Governors of the University of Alberta, priority 2014, dated 2019)

Experiments:
Format in all cases: cell-based, human
[1] = test system: BCPAP cell line; assay: wound-healing assay (cellular migration), BCPAP; details: BCPAP cell line expressing alpha subunit of PDGFR; after 24 and 42 hours; versus no crenolanib
Procedure: (§1) FIG. 8. The effect of PDGFRA blockade using a specific PDGFRA small molecule inhibitor on cellular migration using the wound-healing assay. In two separate cell lines that express the alpha subunit of PDGFR as shown in (A) 8305C cell line and BCPAP cell line in (B), the addition of crenolanib as a selective alpha inhibitor means that the percentage of open wound left after 24 and 42 hours is much higher because of slow the migration of the cells across the gap and this is highly significant. This illustrates the role of PDGFRA in mediating a more aggressive, dedifferentiated behavior for these tumors.

[2] = test system: 8305C cell line; assay: wound-healing assay (cellular migration), 8305C; details: 8305C cell line expressing alpha subunit of PDGFR; after 24 and 42 hours; versus no crenolanib
Procedure: as §1

[3] = test system: patient derived papillary thyroid carcinoma primary tumors; assay: iodide transport in patient derived primary tumors; details: patient derived PTC primary tumors; 72 hour period
Text: FIG. 9. In the effect of PDGFRA blockade using small molecule inhibitors on iodide transport in patient derived papillary thyroid carcinoma primary tumors.

## CC1(COc2ccc3c(c2)ncn3-c2ccc3cccc(N4CCC(N)CC4)c3n2)COC1 [crenolanib]
[1]
  percentage of open wound left: much higher
[2]
  percentage of open wound left: much higher
[3]
  iodide uptake: significant increase in iodide uptake
